Where two headings read alike, the source gives them in different places.
Key:
[1] = biological target: T1, norepinephrine transporter (Homo sapiens, UniProt P23975); test: NE uptake: displacement of norephinephrine ligands in vitro (methods of Galli et al.); format: binding
[2] = biological target: dopamine transporter (Homo sapiens, UniProt Q01959); test: DA uptake: displacement of dopamine ligands in vitro (methods of Gu et al.); details: DA Uptake, Uptake Profile (IC50, nM), displacement of dopamine ligands in vitro
[3] = tested on: mouse; test: Acute toxicity assessment, maximum tolerated dose i.v., mouse; format: in vivo; details: mice
Method: (§1) An in vivo evaluation was carried out to determine the maximum tolerated dose of numerous test compounds in two animal species (mouse and rat). The compounds were administered i.v. and the animals were then observed for 72 h. Compounds 114, 115, 113, 110, 124, 125, 129, and 130 were solubilized in 5% dextrose (w/v)/polyethylene glycol 400 (4:1 v/v). Compounds 126, 127, 131, and 132 were solubilized in 10% hydroxypropyl-β-cyclodextrin (w/v).

[4] = tested on: rat; test: Acute toxicity assessment, maximum tolerated dose i.v., rat; format: in vivo; details: rats
Method: as §1

[5] = biological target: T2, serotonin transporter (Homo sapiens, UniProt P31645); test: 5-HT uptake: displacement of serotonin ligands in vitro (methods of Gu et al.); format: binding
[6] = biological target: DAT (Homo sapiens, UniProt Q01959); test: cell-based; parameters: expressed in transfected cells; details: hDAT cell line; read-out: DA Uptake, Functional Assays (antagonism, EC50)
[7] = biological target: T1, norepinephrine transporter; test: Functional activity, norephinephrine uptake inhibition in MDCK cell lines; format: cell-based
[8] = biological target: T2, serotonin transporter; test: Functional activity, serotonin uptake inhibition in human HEK-293 cell lines; format: cell-based; parameters: expressed in transfected cells; host or cells: HEK-293
[9] = tested on: rats; test: Behavioral despair assay in rats, 3 i.p. injections (Example 143); format: in vivo, rat; details: 3 i.p. injections 24 h, 5 h and 1 h before test
Source text: The objective of this study was to assess the antidepressant effects of test compounds 124, 125, 126, and 127 in the behavioral despair assay in rats according to the methods described by Porsolt R. D., Anton G., Blavet N., Jalfre M., Behavioural despair in rats: a new model sensitive to antidepressant treatment, Eur. J. Pharmacol., 1978, 47, 379-391. The animals were preconditioned in a pretest session, where the rats were individually forced to swim inside a vertical plexiglass cylinder containing water maintained at 19-20° C. After 15 minutes in the water, they were allowed to dry for 15 minutes in a heated enclosure. Twenty four hours later, they were replaced in the cylinder and the total duration of immobility was measured during a 5 minute test (test session). The test compounds and vehicle were administered as a series of 3 intraperitoneal injections 24 h, 5 h and 1 h before the 5 minute test on the second day.
(§2) The results are expressed as the percentage of variation of the total duration of immobility calculated from the mean value of the vehicle-treated group (% variation=[(immobility duration of vehicle-immobility duration of test compound)/(immobility duration of vehicle)]×100%).

[10] = tested on: rats; format: in vivo, rat
Method: The animals were preconditioned in a pretest session, where the rats were individually forced to swim inside a vertical plexiglass cylinder containing water maintained at 19-20° C. […] Twenty four hours later, the compounds were administered intraperitoneal to the animals. One hour after administration of the test compound, animals were put back into the cylinder containing water. The total duration of immobility was measured during the last 4 minutes of a 6 minute test.
as §2

[11] = NE Uptake, Uptake Profile (IC50, nM)
[12] = displacement of serotonin ligands in vitro, read-out: 5-HT Uptake, Uptake Profile (IC50)
[13] = human HEK-293 cell lines, read-out: 5-HT Uptake, Functional Assays (antagonism, EC50)

Sequence of dopamine transporter (Q01959 whole entry): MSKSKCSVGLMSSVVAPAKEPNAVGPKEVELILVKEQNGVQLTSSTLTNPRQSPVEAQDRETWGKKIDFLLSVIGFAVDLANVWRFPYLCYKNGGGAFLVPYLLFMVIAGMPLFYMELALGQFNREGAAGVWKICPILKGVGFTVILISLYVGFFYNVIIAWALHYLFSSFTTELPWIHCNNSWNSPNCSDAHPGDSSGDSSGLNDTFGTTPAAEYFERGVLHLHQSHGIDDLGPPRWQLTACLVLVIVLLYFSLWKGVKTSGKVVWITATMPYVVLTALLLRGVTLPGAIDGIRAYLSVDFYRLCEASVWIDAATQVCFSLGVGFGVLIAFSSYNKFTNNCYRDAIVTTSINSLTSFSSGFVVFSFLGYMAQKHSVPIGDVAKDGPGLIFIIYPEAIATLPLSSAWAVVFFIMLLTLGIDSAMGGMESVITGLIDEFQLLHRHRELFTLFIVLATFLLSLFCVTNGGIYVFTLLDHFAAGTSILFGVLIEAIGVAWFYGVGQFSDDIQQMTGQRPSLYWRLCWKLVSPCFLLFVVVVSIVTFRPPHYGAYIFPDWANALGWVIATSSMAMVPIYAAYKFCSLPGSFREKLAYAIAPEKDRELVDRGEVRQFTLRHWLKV
Sequence of DAT (Q01959 whole entry): as above
T1 sequence (P23975 whole entry): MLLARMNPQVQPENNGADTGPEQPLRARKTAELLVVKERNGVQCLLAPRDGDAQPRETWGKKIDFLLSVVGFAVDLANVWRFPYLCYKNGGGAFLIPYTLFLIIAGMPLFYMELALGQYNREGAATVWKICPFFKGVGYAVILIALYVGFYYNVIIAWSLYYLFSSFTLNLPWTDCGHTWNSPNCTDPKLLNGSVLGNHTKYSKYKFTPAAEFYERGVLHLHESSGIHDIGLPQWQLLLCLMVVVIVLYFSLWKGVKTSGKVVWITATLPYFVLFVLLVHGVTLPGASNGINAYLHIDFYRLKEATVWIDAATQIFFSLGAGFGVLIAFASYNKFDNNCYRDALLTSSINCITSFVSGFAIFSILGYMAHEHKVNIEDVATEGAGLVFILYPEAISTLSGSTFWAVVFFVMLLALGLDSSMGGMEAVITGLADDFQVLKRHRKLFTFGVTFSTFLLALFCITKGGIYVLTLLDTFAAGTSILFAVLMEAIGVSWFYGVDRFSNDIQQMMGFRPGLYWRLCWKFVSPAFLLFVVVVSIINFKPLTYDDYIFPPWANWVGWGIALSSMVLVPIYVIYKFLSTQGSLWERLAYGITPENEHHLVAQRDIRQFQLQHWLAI
T2 sequence (P31645 whole entry): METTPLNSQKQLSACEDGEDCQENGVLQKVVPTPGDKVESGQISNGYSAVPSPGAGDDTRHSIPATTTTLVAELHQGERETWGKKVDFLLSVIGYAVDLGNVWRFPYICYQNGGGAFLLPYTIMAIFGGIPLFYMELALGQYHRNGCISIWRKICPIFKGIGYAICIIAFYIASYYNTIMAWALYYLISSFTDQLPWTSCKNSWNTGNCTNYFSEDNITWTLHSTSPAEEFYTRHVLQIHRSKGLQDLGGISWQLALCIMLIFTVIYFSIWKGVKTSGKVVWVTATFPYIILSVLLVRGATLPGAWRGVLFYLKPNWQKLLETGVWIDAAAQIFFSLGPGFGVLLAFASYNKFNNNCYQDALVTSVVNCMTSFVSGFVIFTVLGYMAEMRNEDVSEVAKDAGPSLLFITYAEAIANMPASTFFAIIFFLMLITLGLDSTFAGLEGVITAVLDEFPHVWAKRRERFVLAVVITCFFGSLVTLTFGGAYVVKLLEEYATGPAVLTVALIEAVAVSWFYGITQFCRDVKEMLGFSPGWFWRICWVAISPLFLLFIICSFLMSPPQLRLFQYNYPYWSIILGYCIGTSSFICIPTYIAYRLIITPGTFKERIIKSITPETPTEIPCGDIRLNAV

| Compound | IC50 [1, 11] | IC50 [2] | IC50 [5, 12] | EC50 [6] | EC50 [8, 13] | EC50 [7] | other results |
| --- | --- | --- | --- | --- | --- | --- | --- |
| OC[C@H]1[C@@H](COc2ccc(C(F)(F)F)cc2)CCCN1CC1(c2ccc(Cl)cc2)CCC1 (single isomer, unassigned) [compound 131, cis-[1-[1-(4-chloro-phenyl)-cyclobutylmethyl]-3-(4-trifluoromethyl-phenoxymethyl)-piperidin-2-yl]-methanol] | < 1000 nM | < 100 nM | < 1000 nM |  |  |  | tolerability and mortality after 72 h ([3]; 30 mg/kg i.v.): well tolerated; tolerability and mortality after 72 h ([4]; 30 mg/kg i.v.): well tolerated |
| OC[C@H]1[C@@H](COc2ccc(C(F)(F)F)cc2)CCCN1CC1(c2ccc(Cl)cc2)CCC1 (single isomer, unassigned) [compound 132, cis-[1-[1-(4-chloro-phenyl)-cyclobutylmethyl]-3-(4-trifluoromethyl-phenoxymethyl)-piperidin-2-yl]-methanol] | < 100 nM | < 10 nM | < 1000 nM |  |  |  | tolerability and mortality after 72 h ([3]; 30 mg/kg i.v.): well tolerated; tolerability and mortality after 72 h ([4]; 30 mg/kg i.v.): well tolerated |
| OC(CN1CCCC(CCc2ccccc2)C1)c1ccc(Cl)cc1 (single isomer, unassigned) [compound 143, 1-(4-Chloro-phenyl)-2-(3-phenethyl-piperidin-1-yl)-ethanol] | < 100 nM | < 100 nM | < 10 nM |  |  |  | tolerability and mortality after 72 h ([3]; 5 mg/kg i.v.): tolerated; tolerability and mortality after 72 h ([4]; 5 mg/kg i.v.): tolerated |
| OC(CN1CCCC(CCc2ccccc2)C1)c1ccc(Cl)cc1 (single isomer, unassigned) [compound 144, 1-(4-Chloro-phenyl)-2-(3-phenethyl-piperidin-1-yl)-ethanol] | < 100 nM | < 10 nM | < 10 nM |  |  |  | tolerability and mortality after 72 h ([3]; 5 mg/kg i.v.): tolerated; tolerability and mortality after 72 h ([4]; 5 mg/kg i.v.): tolerated |
| OC(CN1CCCC(COc2ccc(C(F)(F)F)cc2)C1)C1(c2ccccc2OC(F)(F)F)CCC1 (single isomer, unassigned) [compound 225, 1-[1-(2-Trifluoromethoxy-phenyl)-cyclobutyl]-2-[3-(4-trifluoromethyl-phenoxymethyl)-piperidin-1-yl]-ethanol] |  | < 10 nM | < 1000 nM | > 1000 nM | > 1000 nM |  | IC50 ([1]; read-out: NE Uptake, Uptake Profile (IC50)): > 1000 nM; EC50 ([7]; read-out: NE Uptake, Functional Assays (antagonism, EC50), MDCK cell lines): > 1000 nM |
| CN(C)CCCN1c2ccccc2CCc2ccccc21 [Imipramine] |  |  |  |  |  |  | % variation of the total duration of immobility ([9]; 30 mg/kg): 55% |
| Clc1ccc(C2(CN3CCC[C@@H](CNc4ccccc4)C3)CCC2)cc1 [compound 28, {1-[1-(4-Chloro-phenyl)-cyclobutylmethyl]-piperidin-3-R-ylmethyl}-phenyl-amine] | < 1000 nM | < 1000 nM | < 1000 nM | < 100 nM | < 1000 nM | < 1000 nM |  |
| Clc1ccc(C2(CN3CCCC(COc4ccc5c(c4)OCO5)C3)CCC2)cc1 (stereo not drawn) [compound 83] | < 1000 nM | < 100 nM | < 1000 nM | < 10 nM | < 100 nM | < 1000 nM |  |
| Fc1ccc(OCC2CCCN(CC3(c4ccc(Cl)cc4)CCC3)C2)cc1 (stereo not drawn) [compound 86, 1-[1-(4-Chloro-phenyl)-cyclobutylmethyl]-3-(4-fluoro-phenoxmethyl)-piperidine] | < 1000 nM | < 100 nM | < 1000 nM | < 10 nM | < 1000 nM | < 1000 nM |  |
| CC(Oc1ccc(C(F)(F)F)cc1)C1CCCN(CC2(c3ccc(Cl)cc3)CCC2)C1 (stereo not drawn) [compound 99, 1-[1-(4-chloro-phenyl)-cyclobutylmethyl]-3-[1-(4-trifluoromethyl-phenoxy)-ethyl]-piperidine] | < 1000 nM | < 100 nM | < 1000 nM | < 10 nM | > 1000 nM | < 1000 nM |  |
| FC(F)(F)c1ccc(OCC2CN(CC3(c4ccc(Cl)cc4)CCC3)CCO2)cc1 (stereo not drawn) [compound 102] | > 1000 nM | < 100 nM |  | < 10 nM |  | < 10 nM | EC50 ([8]; 5-HT Uptake, Functional Assays (antagonism, EC50, nM)): > 1000 nM; IC50 ([5]; 5-HT Uptake, Uptake Profile (IC50, nM)): > 1000 nM |
| O=C(CN1CCC[C@H](COc2ccc(C(F)(F)F)cc2)C1)C1(c2ccc(Cl)cc2)CCC1 [compound 123, S-1-[1-(4-Chloro-phenyl)-cyclobutyl]-2-[3-(4-trifluoromethyl-phenoxymethyl)-piperidin-1-yl]-ethanone] | < 1000 nM | < 10 nM | < 1000 nM | < 10 nM | < 1000 nM | < 1000 nM |  |
| O[C@@H](CN1CCC[C@H](COc2ccc(C(F)(F)F)cc2)C1)C1(c2ccc(Cl)cc2)CCC1 [compound 125, 1R-1-[1-(4-Chloro-phenyl)-cyclobutyl]-2-[(3S)-3-(4-trifluoromethyl-phenoxymethyl)-piperidin-1-yl]-ethanol] | < 100 nM | < 10 nM | < 1000 nM | < 10 nM | < 1000 nM | < 1000 nM | tolerability and mortality after 72 h ([3]; 30 mg/kg i.v.): well tolerated; % variation of the total duration of immobility ([10]; 10 mg/kg i.p., 1 h before test): 55%; tolerability and mortality after 72 h ([4]; 30 mg/kg i.v.): well tolerated; % variation of the total duration of immobility ([9]; 2.5 mg/kg): 12% |
| O=C(CN1CCC[C@@H](COc2ccc(C(F)(F)F)cc2)C1)C1(c2ccc(Cl)cc2)CCC1 [compound 128, S-1-[1-(4-Chloro-phenyl)-cyclobutyl]-2-[3-(4-trifluoromethyl-phenoxymethyl)-piperidin-1-yl]-ethanone] | < 1000 nM | < 100 nM | < 1000 nM | < 10 nM | < 1000 nM | < 1000 nM |  |
| FC(F)(F)c1ccc(COC[C@H]2CCCN(CC3(c4ccc(Cl)cc4)CCC3)C2)cc1 [compound 129, S-1-[1-(4-Chloro-phenyl)-cyclobutylmethyl]-3-(4-trifluoromethyl-benzyloxymethyl)-piperidine] | < 100 nM | < 10 nM | > 1000 nM | < 10 nM | < 100 nM | < 100 nM | tolerability after 72 h ([3]; 20 mg/kg i.v.): well tolerated; tolerability and mortality after 72 h ([4]; 30 mg/kg i.v.): well tolerated |
| FC(F)(F)c1ccc(COC[C@@H]2CCCN(CC3(c4ccc(Cl)cc4)CCC3)C2)cc1 [compound 130, R-1-[1-(4-Chloro-phenyl)-cyclobutylmethyl]-3-(4-trifluoromethyl-benzyloxymethyl)-piperidine] | < 1000 nM | < 100 nM | < 1000 nM | < 10 nM | > 1000 nM | < 100 nM | tolerability and mortality after 72 h ([3]; 30 mg/kg i.v.): well tolerated; tolerability and mortality after 72 h ([4]; 30 mg/kg i.v.): well tolerated |
| OC(CN1CCC[C@@H](CCc2ccccc2)C1)c1ccc(Cl)cc1 (stereo partly drawn) [compound 233] | < 100 nM | < 10 nM | < 10 nM | < 10 nM | < 10 nM | < 10 nM |  |
| CN1Cc2c(N)cccc2C(c2ccccc2)C1 (stereo not drawn) [nomifensine, reference compound] |  |  |  |  |  |  | % variation of the total duration of immobility ([10]; rat, in vivo): 78% |

Source: US7294637B2 (Sepracor, Inc., priority 2000, dated 2007)
